Test results published in US20030211605A1, “Derivation of midbrain dopaminergic neurons from embryonic stem cells” (priority 2003, published 2003).

Columns and labels:
Type in all cases: cell-based, mouse
[1] = tested on: ES-derived neuron; experiment: Patch clamp recording of synaptic activity of differentiated ES-derived neurons; settings: 10 mM, pressure application; 13 days of differentiation; FIG. 9B/9C
[2] = tested on: ES cells; experiment: Comparison of N2 and N3FL media: total, TUJ1+ and TH+ cells after differentiation; settings: for phenotype of the ES cell derived population: variation of concentration in the medium
[3] = tested on: ES cells; experiment: Yield of TH+ neurons (TH/TUJ1 immunocytochemistry) in differentiated ES cell cultures; settings: SHH 500 ng/ml, FGF8 100 ng/ml, cAMP 1 mM, ascorbic acid 200 μM, added at different stages; FIG. 4
Description: Specifically, the cells were dissociated by adding a solution of 0.05% typsin and 0.04% EDTA to the plates and incubating at 37° C. for 5 minutes. The dissociated cells were plated on tissue culture plastic or glass coverslips at a concentration of 1.5-2×10^6 cm^2 in serum free N2 medium supplemented with 1 μg/ml of laminin and 10 ng/ml of basic fibroblast growth factor (bFGF, R&D Systems, Minneapolis, Minn.). The medium was also supplemented with murine aminoterminal fragment SHH (500 ng/ml); murine FGF8 isoform b (100 ng/ml, both from R& D System); and ascorbic acid (200 μM, Sigma). Control cultures were treated identically except that no SHH or FGF8 was applied during cell proliferation.
Differentiation (stage 5) was induced using a modification of Okabe et al., using N2 medium instead of N3FL medium. […]
Uniform random sampling procedure were used for cell counts and quantified using the fractionator technique (Gundersen et al., (1988) “Some new, simple and efficient stereological methods and their use in pathological research and diagnosis,” APIMS 96:379-394). […] Data expressed as mean±SEM.
Yield of TH+ neurons is expressed as a percentage of all TUJ1+ neurons.

NCCCC(=O)O [GABA, gamma amino butyric acid]
response to application to the dendrites of a differentiated neuron [1]: inward current

O=S(=O)(O)CCN1CCN(CCO)CC1 [HEPES, 4-(2-hydroxyethyl)-1-piperazine-ethanesulfonic acid]
percentage of TUJ1 and TH+ cells ([2]; substitution of bicarbonate (N2) by HEPES (N3FL), FIG. 8): dramatically reduced

O=C1O[C@H]([C@@H](O)CO)C(O)=C1O [ascorbic acid]
yield of TH+ neurons (percentage of all TUJ1+ neurons) [3]: increase the yield of TH+ neurons

N[C@@H](CCC(=O)O)C(=O)O [glutamate]
response to application to the dendrites of a differentiated neuron [1]: inward current

NC(=O)CC[C@H](N)C(=O)O [glutamine]
phenotype of the ES cell derived population [2]: did not significantly affect

transferrin
phenotype of the ES cell derived population [2]: did not significantly affect
